Results taken from ChEMBL document CHEMBL1806444, “Synthesis of new chalcone derivatives bearing 2,4-thiazolidinedione and benzoic acid moieties as potential anti-bacterial agents” (2011).

Legend:
Format in all cases: functional
[1] = system: Staphylococcus aureus; assay: Antibacterial activity against 10^5 CFU/mL Staphylococcus aureus RN4220 assessed as inhibition of bacterial growth after 24 hrs by microtiter enzyme-linked immunosorbent assay; conditions: RN4220, 24 h
[2] = system: Staphylococcus aureus; assay: Antibacterial activity against 10^5 CFU/mL Staphylococcus aureus KCTC 503 assessed as inhibition of bacterial growth after 24 hrs by microtiter enzyme-linked immunosorbent assay; conditions: KCTC 503, 24 h
[3] = system: Escherichia coli; assay: Antibacterial activity against 10^5 CFU/mL Escherichia coli 1356 assessed as inhibition of bacterial growth after 24 hrs by microtiter enzyme-linked immunosorbent assay; conditions: Escherichia coli, 1356, 24 h
[4] = system: Escherichia coli; assay: Antibacterial activity against 10^5 CFU/mL Escherichia coli 1682 assessed as inhibition of bacterial growth after 24 hrs by microtiter enzyme-linked immunosorbent assay; conditions: Escherichia coli, 1682, 24 h

MIC [1]	MIC [2]	MIC [3]	MIC [4]	SMILES
> 64 µg/mL	> 64 µg/mL	> 64 µg/mL	> 64 µg/mL	COC(=O)c1ccc(CN2C(=O)S/C(=C\c3ccc(/C=C/C(=O)c4ccccc4O)cc3)C2=O)cc1
> 64 µg/mL	> 64 µg/mL	> 64 µg/mL	> 64 µg/mL	COC(=O)c1ccc(CN2C(=O)S/C(=C\c3ccc(/C=C/C(=O)c4ccccc4OC)cc3)C2=O)cc1
> 64 µg/mL	> 64 µg/mL	> 64 µg/mL	> 64 µg/mL	COC(=O)c1ccc(CN2C(=O)S/C(=C\c3ccc(/C=C/C(=O)c4ccccc4Br)cc3)C2=O)cc1
> 64 µg/mL	> 64 µg/mL	> 64 µg/mL	> 64 µg/mL	COC(=O)c1ccc(CN2C(=O)S/C(=C\c3ccc(/C=C/C(=O)c4ccccc4Cl)cc3)C2=O)cc1
> 64 µg/mL	> 64 µg/mL	> 64 µg/mL	> 64 µg/mL	COC(=O)c1ccc(CN2C(=O)S/C(=C\c3ccc(/C=C/C(=O)c4cccc(Cl)c4)cc3)C2=O)cc1
> 64 µg/mL	> 64 µg/mL	> 64 µg/mL	> 64 µg/mL	COC(=O)c1ccc(CN2C(=O)S/C(=C\c3ccc(/C=C/C(=O)c4ccccc4F)cc3)C2=O)cc1
> 64 µg/mL	> 64 µg/mL	> 64 µg/mL	> 64 µg/mL	COC(=O)c1ccc(CN2C(=O)S/C(=C\c3ccc(/C=C/C(=O)c4ccc(F)cc4)cc3)C2=O)cc1
> 64 µg/mL	> 64 µg/mL	> 64 µg/mL	> 64 µg/mL	COC(=O)c1ccc(CN2C(=O)S/C(=C\c3ccc(/C=C/C(=O)c4ccc(Cl)cc4Cl)cc3)C2=O)cc1
> 64 µg/mL	> 64 µg/mL	> 64 µg/mL	> 64 µg/mL	COC(=O)c1ccc(CN2C(=O)S/C(=C\c3ccc(/C=C/C(=O)c4ccccc4)cc3)C2=O)cc1

Second part, the compound before the results:

SMILES	MIC [1]	MIC [2]	MIC [3]	MIC [4]
COC(=O)c1ccc(CN2C(=O)S/C(=C\c3ccc(/C=C/C(=O)c4cccc(O)c4)cc3)C2=O)cc1	> 64 µg/mL	> 64 µg/mL	> 64 µg/mL	> 64 µg/mL
COC(=O)c1ccc(CN2C(=O)S/C(=C\c3ccc(/C=C/C(=O)c4cccc(OC)c4)cc3)C2=O)cc1	> 64 µg/mL	> 64 µg/mL	> 64 µg/mL	> 64 µg/mL
COC(=O)c1ccc(CN2C(=O)S/C(=C\c3ccc(/C=C/C(=O)c4cccc(Br)c4)cc3)C2=O)cc1	> 64 µg/mL	> 64 µg/mL	> 64 µg/mL	> 64 µg/mL
COC(=O)c1ccc(CN2C(=O)S/C(=C\c3ccc(/C=C/C(=O)c4ccc(Br)cc4)cc3)C2=O)cc1	> 64 µg/mL	> 64 µg/mL	> 64 µg/mL	> 64 µg/mL
COC(=O)c1ccc(CN2C(=O)S/C(=C\c3ccc(/C=C/C(=O)c4ccc(Cl)cc4)cc3)C2=O)cc1	> 64 µg/mL	> 64 µg/mL	> 64 µg/mL	> 64 µg/mL
COC(=O)c1ccc(CN2C(=O)S/C(=C\c3ccc(/C=C/C(=O)c4ccc(C)cc4C)cc3)C2=O)cc1	> 64 µg/mL	> 64 µg/mL	> 64 µg/mL	> 64 µg/mL
COC(=O)c1ccc(CN2C(=O)S/C(=C\c3ccc(/C=C/C(=O)c4ccc5ccccc5c4)cc3)C2=O)cc1	> 64 µg/mL	> 64 µg/mL	> 64 µg/mL	> 64 µg/mL
COC(=O)c1ccc(CN2C(=O)S/C(=C\c3ccc(/C=C/C(=O)c4ccc(C)cc4)cc3)C2=O)cc1	> 64 µg/mL	> 64 µg/mL	> 64 µg/mL	> 64 µg/mL
O=C(O)c1ccc(CN2C(=O)S/C(=C\c3ccc(/C=C/C(=O)c4ccc5ccccc5c4)cc3)C2=O)cc1	> 64 µg/mL	> 64 µg/mL	> 64 µg/mL	> 64 µg/mL
Cc1ccc(C(=O)/C=C/c2ccc(/C=C3\SC(=O)N(Cc4ccc(C(=O)O)cc4)C3=O)cc2)cc1	> 64 µg/mL	> 64 µg/mL	> 64 µg/mL	> 64 µg/mL
Cc1ccc(C(=O)/C=C/c2ccc(/C=C3\SC(=O)N(Cc4ccc(C(=O)O)cc4)C3=O)cc2)c(C)c1	> 64 µg/mL	> 64 µg/mL	> 64 µg/mL	> 64 µg/mL
